Laboratory results as given in PMC6710349, “Action of Dicumarol on Glucosamine-1-Phosphate Acetyltransferase of GlmU and Mycobacterium tuberculosis” (Frontiers in Microbiology, 2019).

Target: GlmU (glucosamine-1-phosphate acetyltransferase / N-acetylglucosamine-1-phosphate uridyltransferase) (Mycobacterium tuberculosis, UniProt P9WMN3)
Assay: DTNB colorimetric acetyltransferase assay, with Lineweaver-Burk kinetics
Type: biochemical

Chain of GlmU (glucosamine-1-phosphate acetyltransferase / N-acetylglucosamine-1-phosphate uridyltransferase) (P9WMN3 2-495 limits assumed): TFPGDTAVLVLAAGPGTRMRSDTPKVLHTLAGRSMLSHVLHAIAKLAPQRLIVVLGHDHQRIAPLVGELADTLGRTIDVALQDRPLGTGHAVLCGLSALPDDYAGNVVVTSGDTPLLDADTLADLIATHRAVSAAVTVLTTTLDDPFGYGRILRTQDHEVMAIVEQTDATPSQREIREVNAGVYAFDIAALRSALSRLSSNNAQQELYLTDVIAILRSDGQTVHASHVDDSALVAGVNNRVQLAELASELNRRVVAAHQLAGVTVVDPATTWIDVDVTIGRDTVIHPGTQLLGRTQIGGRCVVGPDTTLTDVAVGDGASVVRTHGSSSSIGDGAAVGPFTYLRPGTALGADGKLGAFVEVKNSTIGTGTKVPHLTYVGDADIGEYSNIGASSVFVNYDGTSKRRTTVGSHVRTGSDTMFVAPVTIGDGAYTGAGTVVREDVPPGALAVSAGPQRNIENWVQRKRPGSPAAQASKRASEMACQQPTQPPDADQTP

O=c1oc2ccccc2c(O)c1Cc1c(O)c2ccccc2oc1=O [compound 22, 3,3′-methylene-bis-4-hydroxycoumarin] was tested, and the IC50 was 13.7 µM.
